From ChEMBL document CHEMBL4483862, “Open-source discovery of chemical leads for next-generation chemoprotective antimalarials” (2018)

Tested on: Plasmodium berghei
Assay: Luciferase/luciferin-expressing antifolate-resistant parasites were used to infect a culture of HepG2 cells that were pre-incubated with compounds. Infected hepatocytes emit light due to the luciferase reaction. Assay results are presented as the percent inhibition of light emission compared to control. […]
Assay type: functional
Details: sporozoite; for IC90: read-out: LUCIFERASE INFECTION ASSAY - IC90
[1] = read-out: LUCIFERASE INFECTION ASSAY - IC50

Compound | IC90 [µM] | IC50 [1] [µM] | other results
O=C(Nc1ccc(Cl)cc1)OCc1nccn1Cc1ccc(Cl)cc1 | > 8.77 |  | IC50 (PBLUC_HILL_SLOPE 0.184, PBLUC_R_SQUARED 0.0602, read-out: LUCIFERASE INFECTION ASSAY - IC50): > 8.77 µM
O=C1C(=O)N(CCc2ccccc2)c2c1cccc2C(F)(F)F | 5.96 |  | IC50 (FFLUC_HILL_SLOPE 10.6, FFLUC_R_SQUARED 0.162, HEPG2TOX_HILL_SLOPE 9.24, HEPG2TOX_R_SQUARED 0.771, PBLUC_HILL_SLOPE 5.11, PBLUC_R_SQUARED 0.647, read-out: LUCIFERASE INFECTION ASSAY - IC50): 3.88 µM
c1ccc2c(NCc3ccc(N4CCCC4)nc3)ncnc2c1 | 3.16 |  | IC50 (HEPG2TOX_HILL_SLOPE 0.683, HEPG2TOX_R_SQUARED 0.958, PBLUC_HILL_SLOPE 1.41, PBLUC_R_SQUARED 0.701, read-out: LUCIFERASE INFECTION ASSAY - IC50): 0.668 µM
COc1c(Br)cc([N+](=O)[O-])c(OC)c1C(=O)NC(=O)Nc1cc(C(F)(F)F)cc(C(F)(F)F)c1 | 5.15 |  | IC50 (HEPG2TOX_HILL_SLOPE 8.68, HEPG2TOX_R_SQUARED 0.501, PBLUC_HILL_SLOPE 19.7, PBLUC_R_SQUARED 0.399, read-out: LUCIFERASE INFECTION ASSAY - IC50): 4.61 µM
CNc1nc2cnc(Nc3cccc(C(C)=O)c3)cc2n1-c1cccc(F)c1 | > 10 | > 10 | 
Cc1noc(C)c1S(=O)(=O)N1CCCN(C(=O)c2cc3c(s2)-c2ccccc2CC3)CC1 | > 10 |  | IC50 (PBLUC_HILL_SLOPE 2.04, PBLUC_R_SQUARED 0.622, read-out: LUCIFERASE INFECTION ASSAY - IC50): 4.56 µM
CSc1sc(C(=O)Nc2ccc(Cl)cc2)c2c1S(=O)(=O)N(C)c1ccccc1-2 | > 7.32 | > 7.32 | 
O=C(CN1CCN(C(=O)/C=C/c2ccccc2[N+](=O)[O-])CC1)Nc1ccc(Cl)c(C(F)(F)F)c1 | > 10 | > 10 | 
O=C(NCC1CC1)c1cccc(C2(CNCc3ccc(F)c(Cl)c3)CC2)c1 | > 10 | > 10 | 
COc1ccc(-c2cnc3cnc(-c4cccc(OC)c4F)cn23)cc1 | 4.49 |  | IC50 (HEPG2TOX_HILL_SLOPE 1.94, HEPG2TOX_R_SQUARED 0.943, PBLUC_HILL_SLOPE 2.65, PBLUC_R_SQUARED 0.707, read-out: LUCIFERASE INFECTION ASSAY - IC50): 1.96 µM
CC(C)(C)c1ccc(C(=O)NCCOc2ccccc2F)cc1 | 0.642 |  | IC50 (FFLUC_HILL_SLOPE 1.22, FFLUC_R_SQUARED 0.498, PBLUC_HILL_SLOPE 0.635, PBLUC_R_SQUARED 0.572, read-out: LUCIFERASE INFECTION ASSAY - IC50): 0.0201 µM
CNc1nc2cnc(Nc3cccc(NC(C)=O)c3)cc2n1-c1ccccc1 | > 10 |  | IC50 (HEPG2TOX_HILL_SLOPE 1.67, HEPG2TOX_R_SQUARED 0.953, read-out: LUCIFERASE INFECTION ASSAY - IC50): > 10 µM
CC(C)(C)NCC(O)CON=C1c2ccccc2-c2ccccc21 (stereo unspecified) | > 10 |  | IC50 (PBLUC_HILL_SLOPE 12, PBLUC_R_SQUARED 0.408, read-out: LUCIFERASE INFECTION ASSAY - IC50): 9.17 µM
O=C(COC(=O)/C=C/c1cn(-c2ccccc2)nc1-c1ccc(Cl)cc1)NC(=O)NC1CCCC1 | > 10 | 9.03 | 
Cc1ccc(Oc2c(C)nc(-c3ccccc3)nc2O)cc1 | 1.76 |  | IC50 (PBLUC_HILL_SLOPE 1.81, PBLUC_R_SQUARED 0.898, read-out: LUCIFERASE INFECTION ASSAY - IC50): 0.524 µM
N#Cc1c(SCC(=O)c2ccc(F)c(F)c2)nc2c(c1-c1cccs1)CCCC2 | > 7.74 |  | IC50 (PBLUC_HILL_SLOPE 15.7, PBLUC_R_SQUARED 0.483, read-out: LUCIFERASE INFECTION ASSAY - IC50): 7.6 µM
CSc1sc(C(=O)NC(=O)Nc2ccccc2Cl)c2c1-c1nocc1CC2 | > 7.86 |  | IC50 (HEPG2TOX_HILL_SLOPE 9.91, HEPG2TOX_R_SQUARED 0.105, read-out: LUCIFERASE INFECTION ASSAY - IC50): > 7.86 µM

Compound | IC90 [µM] | IC50 [1] [µM] | other results
Cc1cccc2sc(N(Cc3ccccc3)C(=O)CSC(c3ccccc3)c3ccccc3)nc12 | > 10 | > 10 | 
CCCCOc1ccc(Nc2nc(C(N)COCc3ccccc3)cs2)nn1 (stereo unspecified) | > 8.26 | > 8.26 | 
Cc1cc(C)c(C)c(S)c1C | > 10 | > 10 | 
CN(CC(=O)Nc1ccc(Cl)c(C(F)(F)F)c1)Cc1ccc(O)c2ncccc12 | 0.191 | 0.0645 | 
O=C1C=C(c2ccccc2)C(=O)N1c1cccc(Cl)c1 | > 11.6 |  | IC50 (FFLUC_HILL_SLOPE 29.2, FFLUC_R_SQUARED 0.289, PBLUC_HILL_SLOPE 11, PBLUC_R_SQUARED 0.329, read-out: LUCIFERASE INFECTION ASSAY - IC50): 11.3 µM
CC(Oc1ccc(C#N)cc1)C(=O)Nc1nc(-c2ccccn2)cs1 (stereo unspecified) | 3.36 |  | IC50 (HEPG2TOX_HILL_SLOPE 1.33, HEPG2TOX_R_SQUARED 0.927, PBLUC_HILL_SLOPE 145, PBLUC_R_SQUARED 0.223, read-out: LUCIFERASE INFECTION ASSAY - IC50): 3.31 µM
COCOc1ccc(-c2cc(-c3ccc(OC)c(OC)c3)cnc2N)cc1 | > 9.01 |  | IC50 (PBLUC_HILL_SLOPE 4.72, PBLUC_R_SQUARED 0.371, read-out: LUCIFERASE INFECTION ASSAY - IC50): 7.27 µM
CC(=O)Nc1ccc(NC(=O)/C=C/c2cc(C)n(-c3ccccc3)c2C)c(C(F)(F)F)c1 | 9.3 |  | IC50 (PBLUC_HILL_SLOPE 1.31, PBLUC_R_SQUARED 0.816, read-out: LUCIFERASE INFECTION ASSAY - IC50): 1.74 µM
Cc1nc(NC(=O)CCc2c[nH]c3ccccc23)sc1-c1ccccn1 | 3.51 |  | IC50 (HEPG2TOX_HILL_SLOPE 2, HEPG2TOX_R_SQUARED 0.799, PBLUC_HILL_SLOPE 14.5, PBLUC_R_SQUARED 0.715, read-out: LUCIFERASE INFECTION ASSAY - IC50): 3.02 µM
COc1ccc(NC2=NC(=O)/C(=C/c3cc(C)n(-c4cccc(Cl)c4Cl)c3C)S2)cc1 | 0.771 |  | IC50 (PBLUC_HILL_SLOPE 2.19, 1.56, PBLUC_R_SQUARED 0.711, 0.979, read-out: LUCIFERASE INFECTION ASSAY - IC50): 0.238 µM
O=C(Nc1cccc(C(F)(F)F)c1)c1cccc(Cn2cc(C(F)(F)F)ccc2=O)c1 | > 7.49 |  | IC50 (PBLUC_HILL_SLOPE 12.4, PBLUC_R_SQUARED 0.188, read-out: LUCIFERASE INFECTION ASSAY - IC50): 6.37 µM
CCOC(=O)CN1N=C(/C=C/c2ccc(C(C)C)cc2)CCC1=O | > 10 |  | IC50 (HEPG2TOX_HILL_SLOPE 1.7, HEPG2TOX_R_SQUARED 0.981, read-out: LUCIFERASE INFECTION ASSAY - IC50): > 10 µM
CC(=O)c1ccc(-c2ccc(C(=O)Nc3cnc4c(cnn4C(C)C)c3)o2)cc1 | 8.52 |  | IC50 (HEPG2TOX_HILL_SLOPE 16.5, HEPG2TOX_R_SQUARED 0.628, PBLUC_HILL_SLOPE 4.19, PBLUC_R_SQUARED 0.524, read-out: LUCIFERASE INFECTION ASSAY - IC50): 5.04 µM
CCn1nc(C)c([N+](=O)[O-])c1C(=O)Sc1cccc(Br)c1 | > 8.91 | > 8.91 | 
CCn1c(NC(=O)c2[nH]nc3ccccc23)nc2ccccc21 | > 10 |  | IC50 (HEPG2TOX_HILL_SLOPE 8.17, HEPG2TOX_R_SQUARED 0.11, PBLUC_HILL_SLOPE 5.04, PBLUC_R_SQUARED 0.686, read-out: LUCIFERASE INFECTION ASSAY - IC50): 7.76 µM
C=C(C)c1cccc(C(C)(C)NC(=O)NNc2ccnc3cc(Cl)ccc23)c1 | 9.06 |  | IC50 (PBLUC_HILL_SLOPE 2.57, PBLUC_R_SQUARED 0.548, read-out: LUCIFERASE INFECTION ASSAY - IC50): 3.86 µM
